Source: patent publication US4714699A, “2-tolylmorpholine derivatives and pharmaceutical compositions” (Societe Anonyme Dite: Laboratoire L. Lafon, priority 1983, dated 1987)
Entries after “also recorded” stand apart in the source; their conditions may differ. Where two headings read alike, the source gives them in different places.

Experiments:
[1] = from EP-A-80,940, page 13, lines 6-10; cited from earlier work
overall behavior in rats = format: in vivo, male rats
Description: (§1) In the following tests, CRL 40 875, in solution in distilled water, was administered intraperitoneally in a volume of 20 ml/kg to male mice and 5 ml/kg to male rats.
(§2) The toxicological and neuropsychopharmacological studies undertaken in accordance with the procedures described above for CRL 40 875 enabled the following observations to be made: […]

[2] = neuropsychopharmacological study, overall findings; format: in vivo, mice, rats; settings: for sedative effects: weak doses where stated
Description: as §1
(§3) In the following tests, CRL 40 897, in solution in distilled water (pH 4), was administered intraperitoneally in a volume of 20 ml/kg to male mice and in a volume of 5 ml/kg to male rats, the procedures being those given above for CRL 40 875.
(§4) In the tests undertaken, CRL 40 912, in solution in distilled water (pH 4.5), was administered intraperitoneally in a volume of 20 ml/kg to male mice and in a volume of 5 ml/kg to male rats, the procedures being those given above for CRL 40 875.
as §2

[3] = overall behavior and reactivities in mice; format: in vivo, male mice
Description: as §1
Groups of three mice are observed before and then 15 minutes, 30 minutes, 1 hour, 2 hours, 3 hours and 24 hours after the administration of CRL 40 875.
as §3, §2

[4] = pretoxicity (LD-O, maximum non-lethal dose); format: in vivo, male mice; settings: for LD-O (maximum non-lethal dose): intraperitoneally, male mice
Description: as §1, §3, §4, §2

[5] = cardiovascular study in dogs; format: in vivo; settings: for minimal effective dose: Canis lupus familiaris, read-out: dose as from which femoral flow rate is increased; for vasodilator property: dog, in vivo
[6] = interaction with oxotremorine; format: in vivo, male mice
Description: as §1
CRL 40 875 is administered to groups of 6 mice half an hour before the intraperitoneal injection of 0.5 mg/kg of oxotremorine.
as §3, §4

[7] = motility reduced by habituation to the enclosure; format: in vivo, male mice; settings: i.p.
Description: as §1
After they have stayed in the actimeters for 18 hours, the mice (6 per dose, 12 control animals) receive CRL 40 875. They are immediately returned to their respective enclosures and, half an hour later, their motility is recorded for 30 minutes.
as §3, §4

α-adrenergic = α-adrenergic stimulation; settings: in vivo; hydrochloride
[8] = asphyxiant anoxia (gallamine triiodoethylate); format: in vivo, male mice; settings: i.p., mice
Description: as §1
Groups of 20 mice receive CRL 40 875 half an hour before the intraperitoneal administration of 32 mg/kg of gallamine triidoethylate (which is a reference curarizing agent).
as §3, §4

[9] = action on the intergroup aggressiveness; format: in vivo, male mice; settings: 0.5 mg/kg and 2 mg/kg i.p., mice
Description: as §1
After they have stayed for 3 weeks in the two halves of a cage divided by an opaque partition, groups of 3 mice receive CRL 40 875. Half an hour later, the two groups from the same cage are brought together by removal of the partition, and the number of fights which occur in 10 minutes is noted.
as §3, §4

[10] = motility reduced by hypoxic aggression; format: in vivo, male mice; settings: i.p.
Description: as §1
Half an hour after they have received CRL 40 875, the mice (10 per dose, 20 control animals) are subjected to acute hypobaric anoxia [pressure reduction of 600 mm Hg (i.e. about 8×10^4 pascals) in 90 seconds; release of vacuum in 45 seconds] and are then placed in an actimeter, where their motility is recorded for 10 minutes.
as §3

traction test = format: in vivo, male mice; settings: i.p., mice
Description: as §1
(§5) The test is performed on groups of 10 mice half an hour after the administration of CRL 40 875.
as §3

four plate test = format: in vivo, male mice; settings: i.p., mice
Description: as §1, §5, §3

[11] = interaction with reserpine; format: in vivo, male mice; settings: i.p., mice
Description: as §1
Four hours after the intraperitoneal injection of 2.5 mg/kg of reserpine, groups of 6 mice receive CRL 40 875. The effects on the temperature and ptosis are observed.
as §3, §4

[12] = interaction with apomorphine in rats; format: in vivo, male rats; settings: i.p., 0.5 mg/kg apomorphine
Description: as §1
CRL 40 875 is administered to groups of 6 rats 0.5 hour before the subcutaneous injection of 0.5 mg/kg of apomorphine.
as §3, §4

[13] = cardiovascular study in rats; format: in vivo; settings: normally hypertensive rats
[14] = clinical trials, treatment of depressions; format: in vivo; settings: man
Description: In clinical trials, good results were obtained on man with CRL 40 875 (Example 1), CRL 40 912 (Example 2) and CRL 40 897 (Example 3) in the treatment of depressions.

[15] = action on the spontaneous motility; format: in vivo, male mice; settings: mice
Description: as §1
Half an hour after they have received CRL 40 875, the mice (6 per dose, 12 control animals) are placed in an actimeter, where their motility is recorded for 30 minutes.
as §3

electric shock = format: in vivo, male mice; settings: i.p., mice
Description: as §1, §5, §3

[16] = interaction with amphetamine; format: in vivo, male rats; settings: i.p.; 2 mg/kg amphetamine; rats
Description: as §1, §3, §4

[17] = interaction with apomorphine in mice; format: in vivo, male mice; settings: mice
Description: as §1
Groups of 6 mice receive CRL 40 875 0.5 hour before the subcutaneous injection of 1 or 16 mg/kg of apomorphine.
as §3, §4

β2 = β2 effect in dogs; format: in vivo; settings: intraduodenal, anesthetized dogs
β1 = β1 effect in dogs; format: in vivo; settings: intraduodenal, anesthetized dogs
[18] = anesthetized dogs, intraduodenal (CRL 40 903: then intravenous)
[19] = 64 mg/kg and 32 mg/kg i.p., mice
[20] = 128 mg/kg i.p., groups of three mice
[21] = intraduodenal, anesthetized dogs

Cc1ccccc1C1CN(C)CCO1 (stereo not drawn) [CRL 40 915, 2-o-tolyl-4-methylmorpholine]
variation of sedative effects with dose [1]: no sedation at a given dose, significant sedation at the next highest dose used

Cc1ccc(C2CN(C(C)(C)C)CCO2)cc1.Cl (stereo not drawn) [CRL 40 903, 2-p-tolyl-4-tert.-butylmorpholine hydrochloride]
sedation and depressed respiration (overall behavior in rats; 32 mg/kg i.p., male rats): induce sedation and depressed respiration | sedative effects [2]: sedative effects | sedation and depressed respiration ([3]; 64 mg/kg and 128 mg/kg i.p., male mice): induce sedation and depressed respiration | LD-O (maximum non-lethal dose) [4]: greater than 128 mg/kg | maximum increase in femoral flow rate ([5]; 20 mg/kg, anesthetized dogs, intraduodenal then intravenous): +150% | minimal effective dose [5, 18]: ≥ 2.5 mg/kg | dose as from which tachycardia appears [5, 18]: ≥ 1 mg/kg | effect on blood pressure [5, 18]: no action on the blood pressure | effect on the hypertension induced by noradrenaline [5, 18]: does not modify the hypertension induced by noradrenaline | effect on the hypotension / effects of isoprenaline [5, 18]: reduces the hypotension induced by isoprenaline | effect of propanolol on induced vasodilation ([5]; anesthetized dogs, intraduodenal then intravenous): not completely suppressed by propanolol | vasodilator property [5]: particularly interesting as vasodilators

Cc1ccc(C2CN(C(C)C)CCO2)cc1.Cl (stereo not drawn) [CRL 40 875, 2-p-tolyl-4-isopropylmorpholine hydrochloride]
effect on peripheral cholinergic symptoms (defecation) after oxotremorine ([6]; 0.5, 2, 8 and 32 mg/kg i.p., mice): increases the proportion of mice which exhibit defecation | effect on the trembling due to oxotremorine ([6]; 8 and 32 mg/kg i.p., mice): seems to increase the duration of the trembling due to oxotremorine | hypothermic effect ([6]; i.p., mice): exerts a hypothermic effect | effect on the temperature drop caused by oxotremorine ([6]; strong dose, i.p.): partially opposes the temperature drop caused by oxotremorine | resumption in the activity of mice accustomed to their enclosure [7]: does not cause a resumption in the activity of mice accustomed to their enclosure | variation of sedative effects with dose ([2]; in vivo): increase continuously with the dose administered, up to a maximum value, and then decrease continuously and progressively as the dose increases | antidepressant effects ([2]; strong doses, hydrochloride): antidepressant effects (antagonism of the hypothermia induced by apomorphine and oxotremorine); also recorded: antidepressants at strong doses | sedative effects ([2]; hydrochloride): sedative effects (hyporeactivity, hypothermia, hypomotility, significant reduction of aggressiveness, delayed onset of asphyxiant convulsions); also recorded: sedative effects (hypomotility, hypothermia, reduction of intergroup aggressiveness | α-adrenergic stimulant effect (α-adrenergic): signs of peripheral α-adrenergic stimulation (salivation, piloerection, trembling); also recorded: stimulant effects, especially of the α-adrenergic type | time taken for convulsions and death to occur following asphyxiant anoxia [8]: delays the time taken for convulsions and death to occur | effect on number of fights [9]: suppression of the fights | effect on the motor activity [9]: only a moderate effect on the motor activity | motor recovery in mice after reduced-pressure enclosure [10]: does not cause an improvement in the motor recovery | major motor incapacity (traction test): does not cause major motor incapacity | number of punished passes (four plate test): does not cause an increase in the number of punished passes | effect on the ptosis induced by reserpine [11]: without modifying the ptosis induced by reserpine | effect on the hypothermia induced by reserpine ([11]; strong dose): aggravates the hypothermia induced by reserpine | duration of hypothermia ([3]; 2 mg/kg i.p., mice): 0.5 h | hypothermia (temperature change) ([3]; 2 mg/kg i.p., mice): -1.5 °C | duration of hypothermia ([3]; 8 mg/kg i.p., mice): 1 h | duration of piloerection ([3]; 8 mg/kg i.p., mice): 3 h | hypothermia (temperature change) ([3]; 8 mg/kg i.p., mice): -3.9 °C | piloerection, animals affected ([3]; 8 mg/kg i.p., mice): 2/3 | duration of mydriasis ([3]; 32 mg/kg i.p., mice): 0.5 h | duration of reduction in the reactivity to touch and muscular tonus ([3]; 32 mg/kg i.p., mice): 2 h | hypothermia (temperature change) ([3]; 32 mg/kg i.p., mice): -4.1 °C | mydriasis ([3]; 32 mg/kg i.p., mice): moderate mydriasis | piloerection, animals affected ([3]; 32 mg/kg i.p., mice): 2 out of 3 | mortality [4, 19]: no mortality | signs of toxicity [4, 19]: abdominal cramp and trembling | mortality [4, 20]: death (of the 3 animals in the group) | signs of toxicity [4, 20]: thick saliva and convulsions | time to death ([4]; 128 mg/kg i.p., mice): 10 min | effect on stereotypies induced by apomorphine [12]: does not substantially impair the stereotype behavior induced by apomorphine in rats | cardiovascular parameters [13]: does not modify the cardiovascular parameters | results in the treatment of depressions [14]: good results | hypomotility ([15]; 8 and 32 mg/kg i.p.): very significant | minimal effective dose ([15]; Mus musculus, ip, read-out: dose as from which motility is reduced): ≥ 2 mg/kg | effect on electric shock (electric shock): does not modify the convulsant effects of electric shock | effect on stereotypies induced by amphetamine [16]: stereotypies induced by amphetamine are not modified | effect on blood pressure and heart rate ([5]; dogs): hypotensive and tachycardiac agent | intrinsic hypothermic effect ([17]; i.p.): exerts an intrinsic hypothermic effect | effect on righting behavior and stereotypies ([17]; i.p., apomorphine): does not modify the righting behavior and the stereotypies | effect on the hypothermia induced by apomorphine ([17]; strong dose (32 mg/kg) i.p., 16 mg/kg apomorphine): partially opposes the hypothermia induced by 16 mg/kg of apomorphine

CCN1CCOC(O)(c2cccc(C(F)(F)F)c2)C1.Cl (stereo not drawn) [CRL 41 092, 2-(m-trifluoromethylphenyl)-2-hydroxy-4-ethylmorpholine hydrochloride]
sedation, reactivity to touch and muscular tonus (overall behavior in rats; 64 mg/kg i.p., rats): transistory sedation with a reduction in the reactivity to touch and the muscular tonus | sedative effects [2]: sedative effects | β2 effect (β2): very slightly β1^- and β2^- | β1 effect (β1): very slightly β1^- | hypothermia ([3]; 32 mg/kg i.p., mice): moderate hypothermia | duration of sedation ([3]; 128 mg/kg i.p., mice): 0.5 h | fear reaction, reactivity to touch and muscular tonus ([3]; 128 mg/kg i.p., mice): a reduction in the fear reaction, the reactivity to touch and the muscular tonus | LD-O (maximum non-lethal dose) [4]: greater than 256 mg/kg | minimal effective dose [5, 18]: ≥ 1 mg/kg | effect on blood pressure [5, 18]: tends to increase the blood pressure | effect on the hypertension induced by noradrenaline [5, 18]: increases the hypertension induced by noradrenaline | femoral flow rate ([5]; as from 1 mg/kg intraduodenally, anesthetized dogs): greatly increases the femoral flow rate | vasodilator property [5]: particularly interesting as vasodilators | effect on heart beat [5, 21]: does not modify the heart beat | rectal and skin temperatures [5, 21]: a reduction in the vertebral flow rate and also in the rectal and skin temperatures | vertebral flow rate [5, 21]: a reduction in the vertebral flow rate | femoral flow rate after propanolol ([5]; propanolol injected at the end of the test, anesthetized dogs): remaining above its control value | effect of propanolol on heart beat and femoral flow rate ([5]; propanolol injected at the end of the test, anesthetized dogs, intraduodenal): very slightly reduces the heart beat and femoral flow rate
